IC50 data for 28 compounds are collected here from patent US10683290B2, “Tricyclic compounds as anticancer agents” (BRISTOL-MYERS SQUIBB COMPANY, priority 2015, dated 2020).

The first experiment deals with BRD4 (Homo sapiens, UniProt O60885). As to the kind of experiment: biochemical. The experiment is classed as binding. The conditions noted are these: FRET BRD4 IC50 (nM), one of the FRET assays described.
`Cc1nnn(C)c1-c1ccc2c3ncc(C(C)(C)O)cc3n([C@H](c3ccccc3F)C3CCOCC3)c2c1` [Example 9, 2-[7-(dimethyl-1H-1,2,3-triazol-5-yl)-5-[(S)-(2-fluorophenyl)(oxan-4-yl)methyl]-5H-pyrido[3,2-b]indol-3-yl]propan-2-ol] registered an IC50 below 5 nM.

Still in this experiment, the particulars now being: one of the FRET assays described; read-out: FRET BRD4 IC50.
Turning to `Cc1nnn(C)c1-c1cc(F)c2c3ncc(C(C)(C)O)cc3n(C(CCC(F)(F)F)CCC(F)(F)F)c2c1` [Example 10, 2-[7-(Dimethyl-1H-1,2,3-triazol-5-yl)-9-fluoro-5-(1,1,1,7,7,7-hexafluoroheptan-4-yl)-5H-pyrido[3,2-b]indol-3-yl]propan-2-ol], the IC50 was below 5 nM.

Turning to `[2H]C([2H])([2H])c1nnn(C)c1-c1cc2c(cc1Cl)c1ncc(C(C)(C)O)cc1n2C(c1cc(C)on1)C1CCOCC1` (single isomer, unassigned) [Example 79, 2-{8-chloro-5-[(5-methyl-1,2-oxazol-3-yl)(oxan-4-yl)methyl]-7-[4-(^2H3)methyl-1-methyl-1H-1,2,3-triazol-5-yl]-5H-pyrido[3,2-b]indol-3-yl}propan-2-ol], the IC50 is below 1500 nM.

In the case of `Cc1nnn(C)c1-c1cc2c(cc1F)c1ncc(C(C)(C)O)cc1n2C(c1ccc(F)cn1)C1CCOCC1` (single isomer, unassigned) [Example 70, 2-[7-(dimethyl-1H-1,2,3-triazol-5-yl)-8-fluoro-5-[(5-fluoropyridin-2-yl)(oxan-4-yl)methyl]-5H-pyrido[3,2-b]indol-3-yl]propan-2-ol], the IC50 is below 5 nM.

With `[2H]C([2H])([2H])c1nnn(C)c1-c1cc2c(cc1F)c1ncc(C(C)(C)O)cc1n2C(c1cc(C)ccn1)C1CCOCC1` (single isomer, unassigned) [Example 52, 2-{8-fluoro-7-[4-(^2H3)methyl-1-methyl-1H-1,2,3-triazol-5-yl]-5-[(4-methylpyridin-2-yl)(oxan-4-yl)methyl]-5H-pyrido[3,2-b]indol-3-yl}propan-2-ol], the IC50 is below 5 nM.

As to `[2H]C([2H])([2H])c1nnn(C)c1-c1cc2c(cc1F)c1ncc(C(C)(C)O)cc1n2C(c1ncccn1)C1CCOCC1` (single isomer, unassigned) [Example 46], the IC50 is below 5 nM.

With `Cc1nnn(C)c1-c1cc2c(cc1F)c1ncc(C(C)(O)C3CC3)cc1n2[C@H](c1ccccc1F)C1CCOCC1` (single isomer, unassigned) [Example 23], the IC50 was below 5 nM.

In the case of `[2H]C([2H])([2H])c1onc(C)c1-c1cc2c(cc1F)c1ncc(C(C)(C)O)cc1n2[C@H](c1ccccc1)C1CCOCC1` [Example 33, 2-{8-Fluoro-7-[5-(^2H3)methyl-3-methyl-1,2-oxazol-4-yl]-5-[(S)-(oxan-4-yl)(phenyl)methyl]-5H-pyrido[3,2-b]indol-3-yl}propan-2-ol], the IC50 was below 1 nM.

For `Cc1nnn(C)c1-c1ccc2c3ncc(S(C)(=O)=O)cc3n([C@H](c3ccccc3)C3CCOCC3)c2c1` [Example 26, 5-{3-Methanesulfonyl-5-[(S)-oxan-4-yl(phenyl)methyl]-5H-pyrido[3,2-b]indol-7-yl}-1,4-dimethyl-1H-1,2,3-triazole], the IC50 was below 5 nM.

Regarding `Cc1nnn(C)c1-c1ccc2c3ncc(C(C)(C)O)cc3n(C(CCC(F)(F)F)c3ccccn3)c2c1` (single isomer, unassigned) [Example 6, 2-[7-(dimethyl-1H-1,2,3-triazol-5-yl)-5-[4,4,4-trifluoro-1-(pyridin-2-yl)butyl]-5H-pyrido[3,2-b]indol-3-yl]propan-2-ol], the IC50 is below 5 nM.

In the case of `Cc1noc(C)c1-c1ccc2c3ncc(C(C)(C)O)cc3n([C@H](c3ccccc3F)C3CCOCC3)c2c1` [Example 15, 2-[7-(Dimethyl-1,2-oxazol-4-yl)-5-[(S)-(2-fluorophenyl)(oxan-4-yl)methyl]-5H-pyrido[3,2-b]indol-3-yl]propan-2-ol], the half-maximal inhibitory concentration (IC50) was below 5 nM.

Regarding `[2H]C([2H])([2H])c1nnn(C)c1-c1cc2c(cc1F)c1ncc(C(C)(C)O)cc1n2C(c1cc(C)on1)C1CCOCC1` (stereo not shown) [Example 34, 2-{8-Fluoro-5-[(5-methyl-1,2-oxazol-3-yl)(oxan-4-yl)methyl]-7-[4-(^2H3)methyl-1-methyl-1H-1,2,3-triazol-5-yl]-5H-pyrido[3,2-b]indol-3-yl}propan-2-ol], the IC50 is below 1 nM.

In the case of `Cc1nnn(C)c1-c1ccc2c3ncc(C(C)(C)O)cc3n(C(CCC(F)(F)F)CCC(F)(F)F)c2c1` [Example 4, 2-[7-(dimethyl-1H-1,2,3-triazol-5-yl)-5-(1,1,1,7,7,7-hexafluoroheptan-4-yl)-5H-pyrido[3,2-b]indol-3-yl]propan-2-ol], the IC50 was below 5 nM.

In the case of `Cc1nnn(C)c1-c1cc2c(cc1F)c1ncc(C(C)(O)C3CC3)cc1n2[C@H](c1ccccc1F)C1CCOCC1` (single isomer, unassigned) [Example 24], the IC50 was below 5 nM.

On to `Cc1noc(C)c1-c1cc2c(cc1F)c1ncc(C(C)(C)O)cc1n2[C@H](c1ccccc1)C1CCOCC1` [Example 18, 2-[7-(dimethyl-1,2-oxazol-4-yl)-8-fluoro-5-[(S)-oxan-4-yl(phenyl)methyl]-5H-pyrido[3,2-b]indol-3-yl]propan-2-ol], for which the IC50 was below 5 nM.

With `[2H]C([2H])([2H])c1nnn(C)c1-c1cc2c(cc1F)c1ncc(C(C)(C)O)cc1n2C(CCC)c1ncccc1F` (single isomer, unassigned) [Example 38, 2-{8-fluoro-5-[1-(3-fluoropyridin-2-yl)butyl]-7-[4-(^2H3)methyl-1-methyl-1H-1,2,3-triazol-5-yl}-5H-pyrido[3,2-b]indol-3-yl]propan-2-ol], the IC50 was below 1 nM.

Take `Cc1nnn(C)c1-c1ccc2c3ncc(C(C)(C)O)cc3n([C@H](c3ccc(F)cc3)C3CCOCC3)c2c1` [Example 3, 2-[7-(Dimethyl-1H-1,2,3-triazol-5-yl)-5-[(S)-(4-fluorophenyl)(oxan-4-yl)methyl]-5H-pyrido[3,2-b]indol-3-yl]propan-2-ol]: the IC50 is below 1 nM.

For `Cc1nnn(C)c1-c1cc2c(cc1F)c1ncc(C(C)(C)O)cc1n2C(c1ccc(F)cn1)C1CCOCC1` (single isomer, unassigned) [Example 69, 2-[7-(dimethyl-1H-1,2,3-triazol-5-yl)-8-fluoro-5-[(5-fluoropyridin-2-yl)(oxan-4-yl)methyl]-5H-pyrido[3,2-b]indol-3-yl]propan-2-ol], the IC50 was below 1500 nM.

Consider `Cc1noc(C)c1-c1ccc2c3ncc(C(C)(C)O)cc3n([C@H](c3ccccc3)C3CCOCC3)c2c1F` [Example 17, 2-[7-(Dimethyl-1,2-oxazol-4-yl)-6-fluoro-5-[(S)-oxan-4-yl(phenyl)methyl]-5H-pyrido[3,2-b]indol-3-yl]propan-2-ol], for which the IC50 was below 5 nM.

Regarding `[2H]C([2H])([2H])c1nnn(C)c1-c1cc2c(cc1F)c1ncc(S(C)(=O)=O)cc1n2[C@H](c1ccccc1F)C1CCOCC1` [Example 28, 5-{8-Fluoro-5-[(S)-(2-fluorophenyl)(oxan-4-yl)methyl]-3-methanesulfonyl-5H-pyrido[3,2-b]indol-7-yl}-4-(^2H3)methyl-1-methyl-1H-1,2,3-triazole], the IC50 is below 1 nM.

Consider `[2H]C([2H])([2H])c1nnn(C)c1-c1cc2c(cc1F)c1ncc(C(C)(C)O)cc1n2[C@H](c1ccccc1F)C1CCOCC1` [Example 22, 2-{8-Fluoro-5-[(S)-(2-fluorophenyl)(oxan-4-yl)methyl]-7-[4-(^2H3)methyl-1-methyl-1H-1,2,3-triazol-5-yl]-5H-pyrido[3,2-b]indol-3-yl}propan-2-ol], for which the IC50 was below 1 nM.

Turning to `[2H]C([2H])([2H])c1nnn(C)c1-c1cc2c(cc1F)c1ncc(C(C)(C)O)cc1n2C(c1ncccc1C)C1CCOCC1` (single isomer, unassigned) [Example 43, 2-{8-fluoro-7-[4-(^2H3)methyl-1-methyl-1H-1,2,3-triazol-5-yl]-5-[(3-methylpyridin-2-yl)(oxan-4-yl)methyl}-5H-pyrido[3,2-b]indol-3-yl]propan-2-ol], the IC50 is below 5 nM.

In the case of `Cc1nnn(C)c1-c1cc2c(cc1F)c1ncc(C(C)(C)O)cc1n2C(c1ncccn1)C1CCOCC1` (single isomer, unassigned) [Example 55], the IC50 was below 1500 nM.

With `[2H]C([2H])([2H])c1nnn(C)c1-c1cc2c(cc1Cl)c1ncc(C(C)(C)O)cc1n2C(CCC)c1ncccc1F` (single isomer, unassigned) [Example 82, 2-{8-chloro-5-[1-(3-fluoropyridin-2-yl)butyl]-7-[4-(^2H3)methyl-1-methyl-1H-1,2,3-triazol-5-yl]-5H-pyrido[3,2-b]indol-3-yl}propan-2-ol], the IC50 was below 1500 nM.

Regarding `[2H]C([2H])([2H])c1nnn(C)c1-c1cc2c(cc1F)c1ncc(C(C)(C)O)cc1n2C(CCOC)c1ccccc1` (single isomer, unassigned) [Example 62, 2-[8-fluoro-5-(3-methoxy-1-phenylpropyl)-7-[4-(^2H3)methyl-1-methyl-1H-1,2,3-triazol-5-yl]-5H-pyrido[3,2-b]indol-3-yl]propan-2-ol], the IC50 was below 1500 nM.

Regarding `[2H]C([2H])([2H])c1nnn(C)c1-c1cc2c(cc1Cl)c1ncc(C(C)(C)O)cc1n2C(c1cc(C)on1)C1CCOCC1` (single isomer, unassigned) [Example 78, 2-{8-chloro-5-[(5-methyl-1,2-oxazol-3-yl)(oxan-4-yl)methyl]-7-[4-(^2H3)methyl-1-methyl-1H-1,2,3-triazol-5-yl]-5H-pyrido[3,2-b]indol-3-yl}propan-2-ol], the IC50 was below 1500 nM.

Turning to `Cc1ccc2c(n1)c1ccc(-c3c(C)noc3C)cc1n2Cc1ccccc1` [Example 2, 4-{5-Benzyl-2-methyl-5H-pyrido[3,2-b]indol-7-yl}-3,5-dimethyl-1,2-oxazole], the half-maximal inhibitory concentration (IC50) was below 1500 nM.

For the compound `[2H]C([2H])([2H])c1nnn(C)c1-c1cc2c(cc1F)c1ncc(C(C)(C)O)cc1n2C(c1cc(F)ccn1)C1CCOCC1` (racemic) [Example 60, 2-{8-fluoro-5-[(4-fluoropyridin-2-yl)(oxan-4-yl)methyl]-7-[4-(^2H3)methyl-1-methyl-1H-1,2,3-triazol-5-yl]-5H-pyrido[3,2-b]indol-3-yl}propan-2-ol], the IC50 was below 5 nM.

Broadly, the IC50 is the concentration that inhibits the measured activity by half.
